# According to ChEMBL document CHEMBL1150574, “3-Acetoxyspathulenol, a new aromadendrane-type natural product from the soft Coral Parerythropodium fulvum” (J Nat Prod, 2001):
# Activity calls are given as the source filed them. No cut-off for these calls is given here.
# Key:
# Escherichia coli = assay: Antimicrobial activity against Escherichia coli; assay type: functional, organism-based
# Caenorhabditis elegans = assay: Nematicide against Caenorhabditis elegans; assay type: functional, organism-based
# Mycotypha microspora = assay: Antimicrobial activity against Mycotypha microspora; assay type: functional, organism-based
# Artemia = assay: Toxicity against brine shrimp; assay type: organism-based; details: in vivo
# [1] = target: Tyrosine-protein kinase Lck (Homo sapiens) (UniProt P06239); assay: Inhibition of p56 LCK
# [Chlorella] fusca = Antimicrobial activity against Chlorella fusca; assay type: functional, organism-based; details: Scenedesmus fuscus
# Fusarium oxysporum = assay: Antimicrobial activity against Fusarium oxysporum; assay type: functional, organism-based
# Priestia megaterium = assay: Antimicrobial activity against Bacillus megaterium; assay type: functional, organism-based
# Microbotryum violaceum = assay: Antimicrobial activity against Microbotryum violaceum; assay type: functional, organism-based
# [2] = test system: Human immunodeficiency virus; assay: Inhibition of HIV reverse transcriptase
# [3] = test system: Aspergillus pseudoglaucus; assay: Antimicrobial activity against Eurotium repens; assay type: functional, organism-based
# Chain of Tyrosine-protein kinase Lck (Homo sapiens) (P06239 2-509 limits assumed): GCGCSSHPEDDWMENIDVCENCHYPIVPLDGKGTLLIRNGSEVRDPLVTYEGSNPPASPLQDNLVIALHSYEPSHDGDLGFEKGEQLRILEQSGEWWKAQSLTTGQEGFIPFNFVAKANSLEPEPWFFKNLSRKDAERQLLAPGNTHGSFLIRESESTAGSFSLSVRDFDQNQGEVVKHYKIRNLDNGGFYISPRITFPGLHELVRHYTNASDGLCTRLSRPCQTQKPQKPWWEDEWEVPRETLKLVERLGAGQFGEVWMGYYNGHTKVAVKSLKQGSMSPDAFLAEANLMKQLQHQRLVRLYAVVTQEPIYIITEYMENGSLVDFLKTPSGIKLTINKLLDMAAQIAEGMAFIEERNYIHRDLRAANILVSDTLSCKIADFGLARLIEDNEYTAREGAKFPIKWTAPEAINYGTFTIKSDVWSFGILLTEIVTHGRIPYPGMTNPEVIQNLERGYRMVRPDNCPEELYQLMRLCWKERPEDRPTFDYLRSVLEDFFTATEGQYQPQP
compound,measurement,setting,value
C=C1CC[C@@H]2[C@H]([C@H]3[C@H]1C[C@@H](OC(C)=O)[C@@]3(C)O)C2(C)C,Activity,Escherichia coli,inactive
same,Activity,Caenorhabditis elegans,inactive
same,Activity,Mycotypha microspora,inactive
same,Activity,Artemia,Non-toxic
same,Activity,[1],inactive
same,Activity,[Chlorella] fusca,inactive
same,Activity,Fusarium oxysporum,inactive
same,Activity,Priestia megaterium,inactive
same,Activity,Microbotryum violaceum,inactive
same,Activity,[2],inactive
same,Activity,[3],inactive
